Where two headings read alike, the source gives them in different places.

The record followed here is patent US7041465B1 (priority 1999, dated 2006).

One experiment concerns the target FimH (Escherichia coli, UniProt P08191). As to conditions: peptides coated at 2 nmol/50 μl, FimC protein at 0.1 nmol/50 μl; increasing concentrations of FimH (5–25 pmol/well); FIG. 12. As to the method: (§1) The peptides were diluted in phosphate buffered saline (PBS) (120 mM NaCl, 2.7 mM KCl, 10 mM, […], pH 7.4) to 2 nmol/50 μl. FimC protein was diluted to 0.1 nmol/50 μl and coated overnight onto microtiter wells with 50 μl/well at 4° C. The ELISA assay was carried out as described in Kuehn et al., 1993 and Hung et al., 1996. Briefly, the wells were washed three times with PBS and blocked with 3% Bovine Serum Albumin (BSA) in PBS for two hours at 25° C. Then the wells were washed three times with PBS. The FimC-FimH co-complex was incubated in 3 M urea to separate the two proteins. Pure FimH in 3 M urea was collected from the flow through of a Source 15S column (Pharmacia). See Barnhart et al., PNAS USA 97: 7709–7714 (2000). The wells were incubated with 50 μl of FimH in 3% BSA-PBS diluted to 5–25 pmol/well FimH for 45 minutes at 25° C. The wells were washed 3 times with PBS followed by incubation with a 1:1000 dilution of mouse anti-FimH antibodies in 3% BSA-PBS for 45 minutes at 25° C. The wells were washed 3 times with PBS followed by incubation with a 1:1000 dilution of goat antiserum to mouse IgG (Sigma) conjugated to alkaline phosphatase diluted in 3% BSA-PBS for 45 minutes at 25° C. The wells were washed 3 times with PBS and washed 3 times with developing buffer (10 mM diethanolamine, 0.4 mM MgCl2). The ELISA was developed by adding 50 μl of substrate (50 μl of filtered 1 mg/ml p-nitrophenyl phosphate; Sigma) in developing buffer. The reaction was incubated for 1 hour at 25° C. in the dark and the absorbance at 405 nm was read.
(§2) The competition assays were carried out similarly. FimC was coated onto microtiter wells at 0.1 nmol/well. FimH at 5 pmol/well in 3% BSA-PBS was added to the FimC coated wells in the presence or the absence of the FimC or FimG peptide at 2 nmol/well or the indicated peptide concentration. Further, increasing concentrations of FimH were incubated with constant concentrations of the FimC or FimG peptides or the FimC protein immobilized on microtiter wells. […] FimH was added to the FimC coated wells in the presence or absence of peptides to FimC or FimG.

The target in a further experiment is FimH binding to FimC (Escherichia coli, UniProt P08191). As to conditions: FimC coated at 0.1 nmol/well, FimH 5 pmol/well; for FimH binding to immobilized FimC in the presence of increasing concentrations of peptide: FIG. 13; for Inhibition of FimH binding to FimC immobilized on microtiter wells: peptide at 2 nmol/well (tested concentration), FIG. 14. The procedure:
as §1, §2

FimH binding to FimC, sequence (P08191 22-300): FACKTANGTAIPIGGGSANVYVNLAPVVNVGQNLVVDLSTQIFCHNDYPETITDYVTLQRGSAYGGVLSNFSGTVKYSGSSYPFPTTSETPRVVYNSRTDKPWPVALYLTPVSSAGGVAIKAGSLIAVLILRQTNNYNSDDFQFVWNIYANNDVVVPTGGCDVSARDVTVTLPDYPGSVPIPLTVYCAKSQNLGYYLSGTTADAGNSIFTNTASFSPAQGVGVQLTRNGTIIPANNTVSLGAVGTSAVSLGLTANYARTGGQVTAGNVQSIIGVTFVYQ
FimH, sequence (P08191 22-300): as above

For NTLQLAIISR [FimC peptide], the “FimH binding to the immobilized peptide or FimC protein (ELISA, anti-FimH antibodies, absorbance at 405 nm)” value on FimH is “bound well”. In addition, on FimH binding to FimC, the “FimH binding to immobilized FimC in the presence of increasing concentrations of peptide” value was “further decreased the ability of FimH to bind to FimC” and the “Inhibition of FimH binding to FimC immobilized on microtiter wells” value is listed as “inhibited the ability of FimH to bind to FimC”. Also, the “FimH binding to immobilized FimC in the presence of increasing concentrations of peptide” value at FimH binding to FimC (listed as FimC polypeptide) was “inhibit FimH binding to FimC”.
DVTITVNGK [FimG peptide]: the “FimH binding to the immobilized peptide or FimC protein (ELISA, anti-FimH antibodies, absorbance at 405 nm)” value on FimH is recorded as “bound well”. Also, the “Inhibition of FimH binding to FimC immobilized on microtiter wells” value on FimH binding to FimC is listed as “did not inhibit”.
